What is called pIC50 is −log10 of the IC50, conventionally taken in molar units. Higher therefore signals a low IC50. For orientation: pKd means the Kd on a negative log10 scale, so that one unit is a factor of ten. Lower therefore signals a large Kd.

pIC50, pKd: −log10 of the molar value.

This passage reports IC50 and Kd results from US20260109707A1, “HETEROBIFUNCTIONAL COMPOUNDS AND METHODS OF TREATING DISEASE” (Halda Therapeutics OpCo. Inc., priority 2022, published 2026).

In test [1] the target is T1, progesterone receptor ligand binding domain (LBD) (Homo sapiens, UniProt P06401).
T1 construct: GST-tagged PR LBD, Fluormone tracer, and compound were mixed and incubated for 2 hours; purchased Life Technologies A15905 or a15906
T1 sequence (P06401 679-913 limits assumed): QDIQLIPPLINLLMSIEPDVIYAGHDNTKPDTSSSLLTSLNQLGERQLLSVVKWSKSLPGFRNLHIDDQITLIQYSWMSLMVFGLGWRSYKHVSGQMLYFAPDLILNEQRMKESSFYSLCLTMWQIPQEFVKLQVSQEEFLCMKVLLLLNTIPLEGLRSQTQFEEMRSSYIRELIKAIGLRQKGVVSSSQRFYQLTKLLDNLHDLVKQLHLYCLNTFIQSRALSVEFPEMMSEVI
The test is described as follows: FP assay for binding affinity to progesterone receptor (PolarScreen Progesterone Receptor Competitor Assay Kit). The following applies: fluorescence polarization, GST-tagged PR LBD, Table 13. The procedure:
Compounds were tested using the PolarScreen™ Progesterone Receptor Competitor Assay Kit (Life Technologies Cat #A15905 or a15906), as per the manufacturer's instructions. Briefly, GST-tagged PR LBD, Fluormone tracer, and compound were mixed and incubated for 2 hours at room temperature in the dark. Following incubation, the plates were spun at 3000×g for 30 seconds, then sealed with an optical adhesive cover, and fluorescence polarization was measured using appropriate excitation and emission filters with an EnVision Plate Reader (Perkin Elmer). Compound concentration vs. mP value were plotted in Prism (GraphPad). A four-parameter non-linear regression curve fit was applied to dose-response data to determine the half-maximal inhibitory concentration (IC50) for each test compound.
On the technique in general: In fluorescence polarisation assays a small probe gives low polarisation when free and higher when bound to something large.

Another test addresses T2, BRD4-BD2 (Homo sapiens, UniProt O60885).
T2 construct: made in house; host or cells: T7 phage grown in an E. coli host derived from the BL21 strain
Nature of the test: bromoKdELECT assay for binding affinity to BRD4-BD2. The following applies: binding to BRD4-BD2, Table 5. The procedure: Compounds were tested using a bromoKdELECT assay. T7 phage strains displaying bromodomains were grown in parallel in 24-well blocks in an E. coli host derived from the BL21 strain. E. coli were grown to log-phase and infected with T7 phage from a frozen stock (multiplicity of infection=0.4) and incubated with shaking at 32° C. until lysis (90-150 minutes). The lysates were centrifuged (5,000×g) and filtered ([…]) to remove cell debris. Streptavidin-coated magnetic beads were treated with biotinylated small molecule or acetylated peptide ligands for 30 minutes at room temperature to generate affinity resins for bromodomain assays. The liganded beads were blocked with excess biotin and washed with blocking buffer (SeaBlock (Pierce), 1% BSA, 0.05% Tween 20, 1 mM DTT) to remove unbound ligand and to reduce nonspecific phage binding. Binding reactions were assembled by combining bromodomains, liganded affinity beads, and test compounds in 1× binding buffer (17% SeaBlock, 0.33×PBS, 0.04% Tween 20, 0.02% BSA, 0.004% Sodium azide, 7.4 mM DTT). Test compounds were prepared as 1000× stocks in 100% DMSO. Kds were determined using an 11-point 3-fold compound dilution series with one DMSO control point. All compounds for Kd measurements are distributed by acoustic transfer (non-contact dispensing) in 100% DMSO. The compounds were then diluted directly into the assays such that the final concentration of DMSO was 0.09%. All reactions performed in polypropylene 384-well plates. Each was a final volume of 0.02 ml. The assay plates were incubated at room temperature with shaking for 1 hour and the affinity beads were washed with wash buffer (1×PBS, 0.05% Tween 20). The beads were then resuspended in elution buffer (1×PBS, 0.05% Tween […] non-biotinylated affinity ligand) and incubated at room temperature with shaking for 30 minutes. The bromodomain concentration in the eluates was measured by qPCR.

In test [1], `Cc1sc2c(c1C)C(c1ccc(Cl)cc1)=N[C@@H](CC(=O)NCCOCCOCCOC1CCN(c3ccc(C(=O)N[C@H]4CC[C@H](Oc5ccc(C#N)c(Cl)c5)CC4)nn3)CC1)c1nnc(C)n1-2` [I-2, N-[4-(3-chloro-4-cyano-phenoxy)cyclohexyl]-6-[4-[2-[2-[2-[[2-[(9S)-7-(4-chlorophenyl)-4,5,13-trimethyl-3-thia-1,8,11,12-tetrazatricyclo[8.3.0.0^2,6]trideca-2(6),4,7,10,12-pentaen-9-yl]acetyl]amino]ethoxy]ethoxy]ethoxy]-1-piperidyl]pyridazine-3-carboxamide] had a pIC50 of 6.30 to 7.30.

As to `CCNC(=O)C[C@@H]1N=C(c2ccc(CCCOC3CCN(c4ccc(C(=O)N[C@H]5CC[C@H](Oc6ccc(C#N)c(Cl)c6)CC5)nn4)CC3)cc2)c2c(sc(C)c2C)-n2c(C)nnc21` [I-17], the pKd on BRD4-BD2 was over 7.30. On BRD4-BD2, `CCNC(=O)C[C@@H]1N=C(c2ccc(CC3CCN(c4ccc(C(=O)N[C@H]5CC[C@H](Oc6ccc(C#N)c(Cl)c6)CC5)nn4)CC3)cc2)c2c(sc(C)c2C)-n2c(C)nnc21` [I-20] gave a pKd of 6.30 to 7.30. Still for that read-out and setting: to `CCNC(=O)C[C@@H]1N=C(c2ccc(N3CC4(C3)CN(c3ccc(C(=O)N[C@H]5CC[C@H](Oc6ccc(C#N)c(Cl)c6)CC5)nn3)C4)cc2)c2c(sc(C)c2C)-n2c(C)nnc21` [I-24] belongs 6.30 to 7.30. Regarding `CCNC(=O)C[C@@H]1N=C(c2ccc(N3CCC(OC4CCN(c5ccc(C(=O)N[C@H]6CC[C@H](Oc7ccc(C#N)c(Cl)c7)CC6)nn5)CC4)CC3)cc2)c2c(sc(C)c2C)-n2c(C)nnc21` [I-44], the pKd at BRD4-BD2 is 6.30 to 7.30.
